The assay has as its target T1, GPR120 (Homo sapiens, UniProt Q5NUL3).
T1 construct: expressed in transfected cells; host or cells: CHO mitoPhotinaGPR120 cells
T1 sequence (Q5NUL3 1-361): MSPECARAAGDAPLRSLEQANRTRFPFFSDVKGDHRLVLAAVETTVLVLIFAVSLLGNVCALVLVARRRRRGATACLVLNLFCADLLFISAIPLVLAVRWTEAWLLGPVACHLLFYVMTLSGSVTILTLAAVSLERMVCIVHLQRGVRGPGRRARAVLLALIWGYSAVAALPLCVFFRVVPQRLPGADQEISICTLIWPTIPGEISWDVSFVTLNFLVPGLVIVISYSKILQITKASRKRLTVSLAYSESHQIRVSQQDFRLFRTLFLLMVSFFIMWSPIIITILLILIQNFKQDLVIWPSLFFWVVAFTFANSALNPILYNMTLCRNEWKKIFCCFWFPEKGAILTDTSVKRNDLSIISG
The assay is described as follows: GPR120 agonism in CHO mitoPhotinaGPR120 cell based assay with fluorescent (Fluo-8 calcium, FLIPRTetra) readout, Agonist Mode, dose response. The note with it: CHO mitoPhotinaGPR120 cells, Fluo-8 No Wash Ca2+ dye, dose response in quadruplicate, 0.0033% fatty acid free BSA.
As to `Cc1nn(C2CCCC2)c(COc2ccc(CCCO)cc2)c1C#N` [Example 153, 1-cyclopentyl-5-[[4-(3-hydroxypropyl)phenoxy]methyl]-3-methyl-pyrazole-4-carbonitrile], the EC50 (usually the concentration at which the effect is half-maximal) worked out at 0.18 µM.

As to `Cc1nn(-c2ccc(F)cn2)c(COc2ccc(CCCO)cc2)c1C#N` [Example 154, 1-(5-fluoro-2-pyridyl)-5-[[4-(3-hydroxypropyl)phenoxy]methyl]-3-methyl-pyrazole-4-carbonitrile], the EC50 is 0.21 µM. The figure for `Cc1nn(-c2ccc(Cl)cn2)c(COc2ccc(CCCO)cc2)c1C#N` [Example 155, 1-(5-chloro-2-pyridyl)-5-[[4-(3-hydroxypropyl)phenoxy]methyl]-3-methyl-pyrazole-4-carbonitrile] is 0.81 µM; for `Cc1ccc(-n2nc(C)c(C#N)c2COc2ccc(CCCO)cc2)nc1` [Example 156, 5-[[4-(3-hydroxypropyl)phenoxy]methyl]-3-methyl-1-(5-methyl-2-pyridyl)pyrazole-4-carbonitrile] it is 0.19 µM. In the case of `COc1ccc(-n2nc(C)c(C#N)c2COc2ccc(CCCO)cc2)nc1` [Example 157, 5-[[4-(3-hydroxypropyl)phenoxy]methyl]-1-(5-methoxy-2-pyridyl)-3-methyl-pyrazole-4-carbonitrile], the EC50 worked out at 0.28 µM. In the case of `Cc1nn(-c2ccccn2)c(COc2c(F)cc(CCCO)cc2F)c1C#N` [Example 158, 5-[[2,6-difluoro-4-(3-hydroxypropyl)phenoxy]methyl]-3-methyl-1-(2-pyridyl)pyrazole-4-carbonitrile], the EC50 is 0.13 µM. On to `Cc1ccc(-n2nc(C)c(C#N)c2COc2c(F)cc(CCCO)cc2F)cc1` [Example 159, 5-[[2,6-difluoro-4-(3-hydroxypropyl)phenoxy]methyl]-3-methyl-1-(p-tolyl)pyrazole-4-carbonitrile], for which the concentration giving a half-maximal response (EC50) worked out at 0.19 µM. With `CCc1ccc(-n2nc(C)c(C#N)c2COc2c(F)cc(CCCO)cc2F)cc1` [Example 160, 5-[[2,6-difluoro-4-(3-hydroxypropyl)phenoxy]methyl]-1-(4-ethylphenyl)-3-methyl-pyrazole-4-carbonitrile], the EC50 was found to be 0.3 µM. In the case of `COc1ccc(-n2nc(C)c(C#N)c2COc2c(F)cc(CCCO)cc2F)cc1` [Example 161, 5-[[2,6-difluoro-4-(3-hydroxypropyl)phenoxy]methyl]-1-(4-methoxyphenyl)-3-methyl-pyrazole-4-carbonitrile], the EC50 came out at 0.23 µM.

As for `Cc1nn(-c2ccc(Cl)cc2)c(COc2c(F)cc(CCCO)cc2F)c1C#N` [Example 162, 1-(4-chlorophenyl)-5-[[2,6-difluoro-4-(3-hydroxypropyl)phenoxy]methyl]-3-methyl-pyrazole-4-carbonitrile], the EC50 was determined as 0.43 µM.

As to `Cc1nn(C2CCCC2)c(COc2c(F)cc(CCCO)cc2F)c1C#N` [Example 163, 1-cyclopentyl-5-[[2,6-difluoro-4-(3-hydroxypropyl)phenoxy]methyl]-3-methyl-pyrazole-4-carbonitrile], the EC50 came to 0.099 µM. The figure for `Cc1nn(-c2ccc(F)cn2)c(COc2c(F)cc(CCCO)cc2F)c1C#N` [Example 164, 5-[[2,6-difluoro-4-(3-hydroxypropyl)phenoxy]methyl]-1-(5-fluoro-2-pyridyl)-3-methyl-pyrazole-4-carbonitrile] is 0.19 µM. The figure for `Cc1ccc(-n2nc(C)c(C#N)c2COc2c(F)cc(CCCO)cc2F)nc1` [Example 165, 5-[[2,6-difluoro-4-(3-hydroxypropyl)phenoxy]methyl]-3-methyl-1-(5-methyl-2-pyridyl)pyrazole-4-carbonitrile] is 0.17 µM. Turning to `Cc1nn(-c2ccc(Cl)cn2)c(COc2c(F)cc(CCCO)cc2F)c1C#N` [Example 166, 1-(5-chloro-2-pyridyl)-5-[[2,6-difluoro-4-(3-hydroxypropyl)phenoxy]methyl]-3-methyl-pyrazole-4-carbonitrile], the EC50 was 0.22 µM. The figure for `COc1ccc(-n2nc(C)c(C#N)c2COc2c(F)cc(CCCO)cc2F)nc1` [Example 167, 5-[[2,6-difluoro-4-(3-hydroxypropyl)phenoxy]methyl]-1-(5-methoxy-2-pyridyl)-3-methyl-pyrazole-4-carbonitrile] is 0.21 µM; for `COc1ccc(S(=O)(=O)Nc2c(C)cc(C)cc2C)cc1` [GSK137639A, reference compound] it is 4.48 µM.

The record behind these values is patent publication US11597702B2, “Substituted pyrazoles FFA4/GPR120 receptor agonists” (AXXAM S.P.A., priority 2018, dated 2023).
